Experimental data published in article PMC3365763 (The Journal of Biological Chemistry, 2012).

Target: T1, TG2 (transglutaminase-2, transglutaminase type 2) (Homo sapiens, UniProt P21980, K598S/K600S/K602S/R601S)
T1 sequence (P21980 1-687 K598S/K600S/R601S/K602S): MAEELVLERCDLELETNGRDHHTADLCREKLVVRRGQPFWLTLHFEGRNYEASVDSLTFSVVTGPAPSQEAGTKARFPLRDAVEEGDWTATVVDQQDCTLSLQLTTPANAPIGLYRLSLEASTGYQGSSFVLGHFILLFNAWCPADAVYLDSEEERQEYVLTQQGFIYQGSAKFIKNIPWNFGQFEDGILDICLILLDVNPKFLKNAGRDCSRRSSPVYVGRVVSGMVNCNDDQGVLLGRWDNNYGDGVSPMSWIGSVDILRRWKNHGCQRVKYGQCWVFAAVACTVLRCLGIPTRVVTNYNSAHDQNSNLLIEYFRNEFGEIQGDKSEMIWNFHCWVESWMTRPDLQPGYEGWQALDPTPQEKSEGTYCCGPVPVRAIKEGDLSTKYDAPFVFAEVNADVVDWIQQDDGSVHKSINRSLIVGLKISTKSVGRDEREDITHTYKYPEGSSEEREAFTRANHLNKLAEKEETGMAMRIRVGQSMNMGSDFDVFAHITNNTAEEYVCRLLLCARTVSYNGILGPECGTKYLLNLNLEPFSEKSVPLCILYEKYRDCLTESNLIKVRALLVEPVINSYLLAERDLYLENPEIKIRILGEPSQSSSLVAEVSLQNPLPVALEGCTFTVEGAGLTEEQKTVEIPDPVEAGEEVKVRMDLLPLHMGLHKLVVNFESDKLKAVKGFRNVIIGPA
Format: biochemical

Nc1nc2c(ncn2[C@@H]2O[C@H](COP(=O)(O)OP(=O)(O)OP(=O)(O)O)[C@@H](O)[C@H]2O)c(=O)[nH]1 [GTP]
IC50: 148 ± 26 µM
